The text below walks through data of the Deep4Chem optical property database.

Where “and” joins values, the source holds several entries; their conditions need not be identical. Equal values may be shown once.

This data set in a line: solvent given as SMILES.

Consider `CON(OC)c1cc2c3cc(-c4c(C)cc(C)cc4C)cc4c5cc(-c6c(C)cc(C)cc6C)cc6c7cc(B(c8c(C)cc(C)cc8C)c8c(C)cc(C)cc8C)cc8c9cc(-c%10c(C)cc(C)cc%10C)cc%10c%11cc(-c%12c(C)cc(C)cc%12C)cc%12c(c1)c2c1c(c43)c(c65)c(c78)c(c9%10)c1c%11%12`, for which the absorption maximum is 452 nm (in C1CCOC1); 445 nm (in CC(C)=O); 453 nm (in CCCCCC); 461 nm (in Cc1ccccc1); 449 nm (in ClC(Cl)Cl); 450 nm (in ClCCl).
In turn, `CCCCCCCCCCOC(=O)c1ccc2c3ccc(C(=O)OCCCCCCCCCC)c4c(C(=O)OCCCCCCCCCC)cc5[nH]c6cc(C(=O)OCCCCCCCCCC)c1c2c6c5c43` showed an absorption maximum (in C1CCOC1) of 410 nm.
Turning to `CC(C)(C)c1cc2ccc3cc(C(C)(C)C)cc4c3c2c(c1)c(=O)n1c4nc2c3cc(C(C)(C)C)cc4ccc5cc(C(C)(C)C)cc(c5c43)c21`, the absorption maximum was 395 nm (in C1CCOC1); 394 nm (in CC#N); 395 nm (in CC(C)=O); 399 nm (in CCCCCC); 395 nm (in CCO); 393 nm (in CCOC(C)=O). Besides, the absorption maximum (in CO) is on record as 382 nm; the absorption maximum (in CS(C)=O) was determined as 394 nm; the absorption maximum (in Cc1ccc(C)cc1) is 396 nm; the absorption maximum (in ClC(Cl)(Cl)Cl) is 401 nm; the absorption maximum (in ClC(Cl)Cl) worked out at 401 nm; the absorption maximum (in c1ccccc1) is 395 nm.
For the setting “in O”, `CC[N+]1(CC)CN2C(=N1)C(C(=O)O)=Cc1cc(C)c(C)cc12` displayed an absorption maximum of 378 nm.
Take `CCCCCCCCOc1ccc(C2=C(c3ccc(OCCCCCCCC)cc3)C(C)(C)c3ccccc32)cc1`: for the setting “in C1CCCCC1”, the absorption maximum is listed as 281 nm.
Regarding `CCCCC1(CCCC)c2cc(C#Cc3ccc(/C=C(\C)c4ccccc4)cc3)ccc2-c2ccc(C#Cc3ccc(/C=C(\C)c4ccccc4)cc3)cc21`, the absorption maximum (in C1CCOC1) is 365 nm.
Take `COc1nc(Cl)nc(Nc2ccc3cc4ccccc4cc3c2)n1`: the absorption maximum is, setting by setting: (in C1COCCO1) 394 nm; (in CC#N) 397 nm; (in CCCCOCCCC) 396 nm; (in CCOC(C)=O) 398 nm.
Regarding `COc1cc(OC)cc(C2=[O+][B-](F)(F)OC(c3ccccc3)=C2)c1`, the absorption maximum (in ClCCl) is given as 369 nm.
In turn, `CCc1c(C(=O)OC)c(C(=O)OC)c2ccc(-c3ccccc3)nn12` yielded an absorption maximum (in C1CCCCC1) of 399.4 nm.
On to `Cc1cc(O)c(C(=O)/C=C/c2ccccc2[N+](=O)[O-])c(=O)o1`, for which the absorption maximum runs as follows: (in CC#N) 352 nm; (in ClCCl) 365 nm.
Compound `CC(C)[Si](C#Cc1c2ccc(C(C)(C)C)cc2c(C#Cc2c3ccc(C(C)(C)C)cc3c(C#Cc3c4ccc(C(C)(C)C)cc4c(C#C[Si](C(C)C)(C(C)C)C(C)C)c4ccc(C(C)(C)C)cc34)c3ccc(C(C)(C)C)cc23)c2ccc(C(C)(C)C)cc12)(C(C)C)C(C)C` showed an absorption maximum (in Cc1ccccc1) of 570 nm.
Consider `Nc1ccccc1C(=O)O`, for which the absorption maximum runs as follows: (in C1CCCCC1) 338 nm; (in C1COCCO1) 338 nm; (in CC#N) 336 nm; (in CC(C)=O) 336 nm; (in CCO) 334 nm; (in CO) 334 nm. Also, the absorption maximum is, setting by setting: (in CS(C)=O) 342 nm; (in O) 290 nm and 310 nm; (in OCC(F)(F)F) 320 nm; (in c1ccccc1) 340 nm.
`CN(C)c1ccc2c(-c3ccc(Br)cc3)c3ccc(=[N+](C)C)cc-3oc2c1` gave an absorption maximum (in CCO) of 556 nm.
Regarding `CC1=CC(C)=[N+]2C1=C(c1ccccc1)c1c(C)cc(/C=C/c3ccc(O)cc3)n1[B-]2(F)F`, the absorption maximum (in O) came to 565 nm.
`CCN(CC)c1ccc2cc(/C=C/c3ccc([N+](=O)[O-])cc3)c(=O)oc2c1` had an absorption maximum (in CC#N) of 459 nm.
`O=Cc1nc2ccc(C#Cc3ccc(N(c4ccc(C#Cc5ccc6nc(C=O)sc6c5)cc4)c4ccc(C#Cc5ccc6nc(C=O)sc6c5)cc4)cc3)cc2s1`: the absorption maximum (in Cc1ccccc1) stood at 414 nm.
Regarding `C(=C\c1ccc(-c2nnc(-c3ccc(/C=C/c4ccc(-c5nc(-c6ccccc6)c(-c6ccccc6)[nH]5)cc4)cc3)o2)cc1)/c1ccc(-c2nc(-c3ccccc3)c(-c3ccccc3)[nH]2)cc1`, the absorption maximum runs as follows: (in C1CCOC1) 396 nm; (in CC#N) 391 nm; (in CN(C)C=O) 397 nm; (in Cc1ccccc1) 397 nm.
Take `CC(C)(C)OC(=O)NCCCC(=O)OCc1ccc2c3cccc4cccc(c5cccc1c52)c43`: the absorption maximum (in CCO) was found to be 439 nm.
Regarding `CN1C(=CC2=C([O-])C(=Cc3oc4ccccc4[n+]3C)C2=C(C#N)C#N)C(C)(C)c2ccccc21`, the absorption maximum (in ClC(Cl)Cl) was determined as 655 nm.
Consider `Cc1cc(=O)oc2cc3cc(-c4cn(Cc5ccccc5)nn4)ccc3cc12`, for which the absorption maximum (in CCO) is 339 nm.
`CCC1=C(C)C2=C(C)c3cc(I)cn3[B-](F)(F)[N+]2=C1C`: the absorption maximum (in C1CCCCC1) is 517.5 nm; the absorption maximum (in CC(C)=O) is reported as 502.5 nm; the absorption maximum (in CCO) was 506 nm; the absorption maximum (in CCOC(C)=O) is 504.5 nm; the absorption maximum (in CO) is recorded as 503.5 nm; the absorption maximum (in OCC(F)(F)F) was determined as 499.5 nm.
Under “in C1CCOC1”, `C1=C(c2ccccc2)C=C(c2ccccc2)/C1=C/c1ccc2ccc3cccc4ccc1c2c34` gave an absorption maximum of 422 nm.
On to `CCCCCOc1cc2oc(=O)c3c4ccc(N)cc4c4ccc5cccc6c(c1)c2c3c4c56`, for which the absorption maximum (in C1CCOC1) amounted to 471 nm.
`CC(=O)OC[C@@H]1O[C@H](n2cnc3c2N=CN2Cc4c[n+](C)c(C)nc4N=C32)[C@@H](O)[C@H]1O` came in with an absorption maximum (in CC#N) of 392 nm, an absorption maximum (in CCO) of 389 nm and an absorption maximum (in O) of 383 nm.
`c1ccc(-n2c3ccccc3c3cc(-c4cccc(-n5c6ccccc6c6ncccc65)c4)ccc32)cc1`: the absorption maximum (in ClCCl) is given as 345 nm.
For the compound `Nc1ccc2c(c1)-c1ccccc1C2=O`, the absorption maximum is, setting by setting: (in C1CCCCC1) 386 nm; (in CC#N) 409 nm; (in CCO) 429 nm; (in c1ccccc1) 395 nm.
As for `F[B-]1(F)OC(c2ccc3c(c2)Cc2ccccc2-3)=CC(c2ccccc2)=[O+]1`, the absorption maximum (in CC#N) worked out at 412 nm.
Under “in Cc1ccccc1”, `CCCC1=Cc2nc1ccc1[nH]c(cc1CCC)c1nc(ccc3[nH]c2cc3CCC)C(CCC)=C1` yielded an absorption maximum of 667 nm.
For `CCCCOc1ccc(/C=C/C=C/C=C/c2ccc([N+](=O)[O-])cc2)cc1`, the absorption maximum reads like this: (in CC1CCCCC1) 414 nm; (in CC#N) 413 nm; (in Cc1ccccc1) 420 nm; (in ClCCl) 421 nm.
As to `COC(=O)c1cc(=O)n(C)c2cc(-c3ccc4c(c3)OCCO4)sc12`, the absorption maximum runs as follows: (in CC#N) 398 nm; (in ClCCl) 402 nm.
In the case of `CN(C)c1ccc(C2=Cc3cc(Cl)nc[n+]3[B-](F)(F)O2)cc1`, the absorption maximum reads like this: (in C1CCOC1) 451 nm; (in CC#N) 452 nm; (in CCCCCC) 444 nm; (in Cc1ccccc1) 453 nm; (in ClC(Cl)Cl) 460 nm; (in ClCCl) 459 nm.
Consider `CN1c2ccccc2CCc2ccccc21`, for which the absorption maximum came to 279 nm (in CC#N) and 278 nm (in CO).
With `c1ccc(-c2cc(-c3ccc(N(c4ccccc4)c4ccccc4)cc3)cc(-c3ccccc3)n2)cc1`, the absorption maximum reads like this: (in CC#N) 357 nm; (in CCCCCC) 354 nm; (in CCO) 362 nm; (in CO) 359 nm; (in ClCCl) 360 nm.
Consider `CC(=O)c1nc(-c2ccc(N(c3ccccc3)c3ccccc3)cc2)oc1C`, for which the absorption maximum by setting is: (in CC#N) 332 nm; (in CCCCCC) 324 nm; (in CCO) 333 nm; (in CCOC(C)=O) 326 nm; (in CCOCC) 326 nm; (in ClCCl) 328 nm.
Under “in ClCCl”, `CCCCCCCCCCCCn1c(-c2cc(-c3nc4ccc(C)cc4n3CCCCCCCCCCCC)cc(-c3nc4ccc(C)cc4n3CCCCCCCCCCCC)c2)nc2ccc(C)cc21` yielded an absorption maximum of 306.5 nm.
For `c1ccc(-c2ccnc(-c3ccccc3)n2)cc1`, the absorption maximum (in ClC(Cl)Cl) turned out to be 278 nm.
Under “in ClCCl”, `N#Cc1cc(/C=C/c2ccc(/C=C/c3ccc(N(c4ccccc4)c4ccccc4)cc3)c(C#N)c2)ccc1/C=C/c1ccc(N(c2ccccc2)c2ccccc2)cc1` displayed an absorption maximum of 429 nm.
As for `Cc1cc(O)c(-c2[nH]c(=O)n3c2-c2ccccc2C3=O)cc1Cl`, the absorption maximum by setting is: (in CC#N) 393 nm; (in CO) 395 nm; (in ClCCl) 399 nm.
With `CC(C)(C)NC(=O)c1c([Si](C)(C)C)cc2ccc3cccc4ccc1c2c34`, the absorption maximum (in ClC(Cl)Cl) amounted to 382 nm.
As to `COc1cc(OC)cc(C2=C3C(C)=C(I)C(/C=C/c4c[nH]c5ccccc45)=[N+]3[B-](F)(F)n3c(/C=C/c4c[nH]c5ccccc45)c(I)c(C)c32)c1`, the absorption maximum came to 715 nm (in C1CCOC1), 727 nm (in CS(C)=O) and 702 nm (in ClCCl).
For `F[B-]1(F)n2cccc2C(c2ccccc2)=C2C=CC=[N+]21`, the absorption maximum is 503 nm (in Cc1ccccc1) and 500 nm (in ClCCl).
In turn, `CC(C)(C)c1ccc(-c2cc3c(-c4ccc(C(C)(C)C)cc4)c4cccc5c(-c6ccc(C(C)(C)C)cc6)cc6c(-c7ccc(C(C)(C)C)cc7)c7cccc2c7c3c6c54)cc1` yielded an absorption maximum (in ClCCl) of 456 nm.
For `COc1c2ccccc2c(OC)c2c(C#C[Si](C(C)C)(C(C)C)C(C)C)c3cc4sccc4cc3c(C#C[Si](C(C)C)(C(C)C)C(C)C)c12`, where the note is “in ClCCl”, the absorption maximum is 639 nm.
Compound `Cc1ccc(N(c2ccc(C)cc2)c2ccc(-c3cc4c(cc(-c5ccc(N(c6ccc(C)cc6)c6ccc(C)cc6)cc5)c5nsnc54)c4nsnc34)cc2)cc1` had an absorption maximum (in Cc1ccccc1) of 520 nm and an absorption maximum (in ClCCl) of 518 nm.
